Earlier results in patent publication US20220313582A1, “METHOD FOR DYEING KERATINOUS MATERIAL, COMPRISING THE USE OF AN ORGANOSILICON COMPOUND, A CHROMOPHORIC COMPOUND AND A FILM-FORMING POLYMER II” (Henkel AG & Co. KGaA, priority 2019, published 2022).

Conditions: for solubility in water: 25° C.

solubility in water (in words) (at 25° C.)	Structure (SMILES)	solubility in water
	O=S(=O)([O-])c1ccc(N=Nc2c(O)ccc3ccccc23)cc1.[Na+] [Acid Orange 7, sodium salt of 4-[(2-hydroxy-1-naphthyl)azo]benzene sulphonate]	more than 7 g/L
	Nc1cc(S(=O)(=O)[O-])cc2cc(S(=O)(=O)[O-])c(N=Nc3ccccc3)c(O)c12.[Na+].[Na+] [Acid Red 33, disodium salt of 5-amino-4-hydroxy-3-(phenylazo)-naphthalene-2,7-disulphonate]	2500 µg/mL
	O=C([O-])c1c(Cl)c(Cl)c(Cl)c(Cl)c1-c1c2c(Br)cc(=O)c(Br)c-2oc2c(Br)c(O)cc(Br)c12.O=C([O-])c1c(Cl)c(Cl)c(Cl)c(Cl)c1-c1c2c(Br)cc(=O)c(Br)c-2oc2c(Br)c(O)cc(Br)c12.[Na+].[Na+] [Acid Red 92, disodium salt of 3,4,5,6-tetrachloro-2-(1,4,5,8-tetrabromo-6-hydroxy-3-oxoxanthen-9-yl)benzoic acid]	greater than 10 g/L
highly soluble	O=C([O-])C1=NN(c2ccc(S(=O)(=O)[O-])cc2)C(=O)C1N=Nc1ccc(S(=O)(=O)[O-])cc1.[Na+].[Na+].[Na+] (stereo not shown) [Acid Yellow 23, trisodium salt of 4,5-dihydro-5-oxo-1-(4-sulfophenyl)-4-((4-sulfophenyl)azo)-1H-pyrazole-3-carboxylic acid]	
